Results reported in patent US7342014B2, “Diamine derivatives” (Daiichi Pharmaceutical Co., Ltd., priority 2001, dated 2008).
pIC50: −log10 of the molar value. Counter-ions that a name gives are not always drawn.

Legend:
human FXa [1] = target: T1, human FXa (Homo sapiens, UniProt P00742); test: Determination of human FXa-inhibiting effect (IC50 value); type: biochemical; settings: human FXa, substrate S-2222, absorbance at 405 nm, room temperature; read-out: Human FXa-inhibiting effect (IC50)
T1 construct: purchased Enzyme Research Labolatories, Inc
T1 sequence (P00742 235-488 limits assumed): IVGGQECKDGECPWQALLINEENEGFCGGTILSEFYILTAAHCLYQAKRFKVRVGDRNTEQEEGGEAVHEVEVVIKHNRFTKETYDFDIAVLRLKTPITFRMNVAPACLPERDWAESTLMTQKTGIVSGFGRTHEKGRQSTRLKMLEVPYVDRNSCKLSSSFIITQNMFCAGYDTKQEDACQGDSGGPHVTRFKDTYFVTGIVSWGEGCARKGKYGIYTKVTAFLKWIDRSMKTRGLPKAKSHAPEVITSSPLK
T1 sequence (P00742 41-179 partner limits assumed): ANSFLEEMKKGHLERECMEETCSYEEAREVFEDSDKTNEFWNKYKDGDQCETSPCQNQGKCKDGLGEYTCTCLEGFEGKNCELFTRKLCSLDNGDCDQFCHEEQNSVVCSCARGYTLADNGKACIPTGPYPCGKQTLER
Source text: Determination of Human FXa-inhibiting Effect (IC50 Value)
As a control, Tris buffer was used in place of the test compound.

human FXa [2] = target: T1, human FXa; test: Determination of anti-FXa activity in rat plasma after oral administration; type: in vivo; settings: rats, oral dose of 10 mg/kg, plasma collected 0.5, 1, 2 and 4 hours after administration, human FXa and S-2222; read-out: FXa-inhibiting activity (percent inhibition) in plasma
Description: Determination of Anti-FXa Activity in Rat Plasma After Oral Administration
(A) Administration and Blood Collection:
A drug solution (1 mg/ml) obtained by dissolving or suspending a test compound (10 mg) in 0.5% methyl cellulose (MC) was orally administered to rats (10 ml/kg). […] For rats of a control group, the same blood collection was conducted after a 0.5% MC solution was administered. Each blood sample was centrifuged at 1500×g for 10 minutes at 4° C. to separate plasma, and the plasma was preserved at −40° C. until it was used in the following determination of anti-FXa activity in plasma.
(B) Determination of FXa-inhibiting Activity in Plasma:
Tris buffer (100 mM Tris, 200 mM potassium chloride, 0.2% BSA, pH 7.4) (5456 μl), human FXa (2.5 U/ml, 44 μl) and water (550 μl) were mixed. The resultant human FXa solution was used in the following test.
The anti-FXa activity, i.e., percent inhibition (%) was calculated in accordance with the following equation: […]

Compound | pIC50 (human FXa [1]) | inhibition at 10 mg/kg (human FXa [2]) [%] | melting point
CN1CCc2nc(C(=O)N[C@@H]3CN(C(=O)NC(C)(C)C)CC[C@@H]3NC(=O)c3cc4cc(Cl)ccc4[nH]3)sc2C1.Cl (relative stereo) [Example 164, N-((3R*,4S*)-1-[(tert-Butylamino)carbonyl]-4-{[(5-chloroindol-2-yl)carbonyl]amino}piperidin-3-yl)-5-methyl-4,5,6,7-tetrahydrothiazolo[5,4-c]pyridine-2-carboxamide hydrochloride] | 8.32 |  | 236 to 238 °C (dec.)
CN1CCc2nc(C(=O)N[C@@H]3C[C@@H](C(=O)N(C)C)CC[C@@H]3NC(=S)C(=O)Nc3ccc(Cl)cn3)sc2C1 [Ex. 247, N-{(1R,2S,5S)-2-({2-[(5-Chloropyridin-2-yl)amino]-2-oxoethanethioyl}amino)-5-[(dimethylamino)carbonyl]-cyclohexyl}-5-methyl-4,5,6,7-tetrahydrothiazolo[5,4-c]-pyridine-2-carboxamide] | 8.72 |  | 
CN1CCc2nc(C(=O)N[C@@H]3C[C@@H](C(=O)N(C)C)CC[C@@H]3NC(=O)C(=S)Nc3ccc(Cl)cn3)sc2C1 [Ex. 248, N-{(1R,2S,5S)-2-({2-[(5-Chloropyridin-2-yl)amino]-2-thioxoacetyl}amino)-5-[(dimethylamino)carbonyl]-cyclohexyl}-5-methyl-4,5,6,7-tetrahydrothiazolo[5,4-c]-pyridine-2-carboxamide] | 8.27 |  | 
CN1CCc2nc(C(=O)N[C@@H]3C[C@@H](C(=O)N(C)C)CC[C@@H]3NC(=O)C(=O)Nc3ccc(F)cc3)sc2C1 [Example 194, N^1-((1S,2R,4S)-4-[(Dimethylamino)carbonyl]-2-{[(5-methyl-4,5,6,7-tetrahydrothiazolo[5,4-c]pyridin-2-yl)carbonyl]amino}cyclohexyl)-N^2-(4-fluorophenyl)-ethanediamide hydrochloride] | 8.30 | 62 to 96 | 
CN1CCc2nc(C(=O)N[C@@H]3C[C@@H](C(=O)N(C)C)CC[C@@H]3NC(=O)C(=O)Nc3ccc(Br)cn3)sc2C1 [Example 204, N^1-(5-Bromopyridin-2-yl)-N^2-((1S,2R,4S)-4-[(dimethylamino)-carbonyl]-2-{[(5-methyl-4,5,6,7-tetrahydrothiazolo[5,4-c]-pyridin-2-yl)carbonyl]amino}cyclohexyl)ethanediamide hydrochloride] | 8.82 | 62 to 96 | 

The next lines start with results.

pIC50 (human FXa [1]) | inhibition at 10 mg/kg (human FXa [2]) [%] | Compound | melting point
8.51 |  | CN1CCc2nc(C(=O)N[C@@H]3C[C@@H](C(=O)N(C)C)CC[C@@H]3NC(=S)C(=O)Nc3ccc(Cl)cc3)sc2C1 [Ex. 246, N-{(1R,2S,5S)-2-{[2-(4-Chloroanilino)-2-oxoethane-thioyl]amino}-5-[(dimethylamino)carbonyl]cyclohexyl}-5-methyl-4,5,6,7-tetrahydrothiazolo[5,4-c]pyridine-2-carboxamide] | 
8.38 |  | COC(=O)[C@@H]1CC[C@H](NC(=O)c2cc3cc(Cl)ccc3[nH]2)[C@H](NC(=O)c2nc3c(s2)CN(C)CC3)C1 [Example 54, Methyl (1R,3R,4S)-4-{[(5-chloroindol-2-yl)carbonyl]amino}-3-{[(5-methyl-4,5,6,7-tetrahydrothiazolo[5,4-c]pyridin-2-yl)carbonyl]amino}cyclohexanecarboxylate] | 
8.46 |  | CCNC(=O)[C@H]1CC[C@H](NC(=O)c2cc3cc(Cl)ccc3[nH]2)[C@H](NC(=O)c2nc3c(s2)CN(C)CC3)C1 [Example 62, N-{(1R,2S,5S)-2-{[(5-Chloroindol-2-yl)carbonyl]amino}-5-[(ethylamino)carbonyl]cyclohexyl}-5-methyl-4,5,6,7-tetrahydrothiazolo[5,4-c]pyridine-2-carboxamide hydrochloride] | 
7.59 |  | CN1CCc2nc(C(=O)N[C@@H]3CN(S(=O)(=O)CC(=O)O)C[C@H]3NC(=O)c3cc4cc(Cl)ccc4[nH]3)sc2C1 [Example 101, 2-[((3R,4R)-3-{[(5-Chloroindol-2-yl)carbonyl]amino}-4-{[(5-methyl-4,5,6,7-tetrahydrothiazolo[5,4-c]pyridin-2-yl)carbonyl]amino}pyrrolidin-1-yl)sulfonyl]acetic acid] | 
8.92 | 62 to 96 | CN1CCc2nc(C(=O)N[C@@H]3C[C@@H](C(=O)N(C)C)CC[C@@H]3NC(=O)C(=O)Nc3ccc(Cl)cc3)sc2C1 [Example 191, N^1-(4-Chlorophenyl)-N^2-((1S,2R,4S)-4-[(dimethylamino)-carbonyl]-2-{[(5-methyl-4,5,6,7-tetrahydrothiazolo[5,4-c]-pyridin-2-yl)carbonyl]amino}cyclohexyl)ethanediamide hydrochloride] | 
